From patent publication US7846902B2, “Dipeptide-comprising composition for oral administration” (Kyowa Hakko Bio Co., Ltd., priority 2005, dated 2010)
Peptide text beside a SMILES is read from it.

Conditions: 37° C., 2 hours
Description: 10 μL of the resultant dipeptide solution was mixed with 4 μL of blood plasma or 4 μL of water, and was incubated at 37° C. for 2 hours. The mixture solution after incubation was applied to a TLC plate (manufactured by Merck Ltd.), and developed with a solution containing butanol (Kishida Chemical Co., Ltd.), acetic acid (Kishida Chemical Co., Ltd.) and water in a ratio of 2:1:1. A 1% ninhydrin solution was sprayed onto the mixture, which was then incubated at 80° C. for 5 minutes. Incidentally, the 1% ninhydrin solution was prepared by dissolving ninhydrin (Wako Pure Chemical Industries, Ltd.) in ethanol (Kishida Chemical Co., Ltd.).

Structure (SMILES)	TLC spots when mixed with water
CC(C)[C@H](NC(=O)[C@H](C)N)C(=O)O [Alanyl-Valine, alanyl-valine] (H-Ala-Val-OH)	single spot alone
CC[C@H](C)[C@H](NC(=O)[C@H](C)N)C(=O)O [Alanyl-Isoleucine, alanyl-isoleucine] (H-Ala-Ile-OH)	single spot alone
CC(C)C[C@H](NC(=O)[C@H](C)N)C(=O)O [Alanyl-Leucine, alanyl-leucine] (H-Ala-Leu-OH)	single spot alone
